Measured values taken from patent US12371434B2, “MLL1 inhibitors and anti-cancer agents” (NOVARTIS AG, priority 2020, dated 2025).

Key:
[1] = target: wild type MLL1 four-member complex (MLL1-4C) (Homo sapiens, UniProt Q03164); assay: MLL1 LC-MS assay; type: biochemical; details: 30 nM MLL1-4C, 2.5 μM SAM, 10 μM H3K4me0; SAH production by LC-MS/MS; read-out: MLL1 LCMS
Method: The compounds of the present disclosure were serially and separately diluted 3-fold in DMSO to obtain a total of eight or twelve concentrations. Then the test compounds at each concentration (120 nL of each) were transferred by Mosquito into white Proxiplate plus 384-well microplate (PerkinElmer). Solutions (6 μL) of 60 nM wild type MLL1 four-member complex (MLL1-4C) and 5 μM SAM in the reaction buffer (20 mM Tris-HCl, pH8.0, 0.01% Tween 20, 1 mM DTT, 10 mM MgCl2, 0.01% BSA) were added to the wells that were then incubated with the test compound for 20 min. A 6 μL solution of 20 μM of the peptide substrate H3K4me0 (histone H3[1-21]-Biotin) in the reaction buffer was added to initiate each reaction. The final components in the reaction solution include 30 nM MLL1-4C, 2.5 μM SAM, and 10 μM H3K4me0 with varying concentration of the compounds. A positive control consisted of 30 nM MLL1-4C, 2.5 μM SAM, and 10 μM substrate in the absence of the test compound, and a negative control consisted of 2.5 μM SAM, and 10 μM substrate only. Each reaction was incubated at rt for 120 min, then stopped by addition of 3 μL per of quench solution (2.5% TFA with 320 nM d4-SAH). The reaction mixture was centrifuged (Eppendorf centrifuge 5810, Rotor A-4-62) for 2 min at 2000 rmp. The SAH production from the enzymatic assays were monitored by LC-MS/MS on an API 4000 triple quadrupole mass spec with TurboIon Spray (Applied Biosystem) coupled with Prominenece UFLC(Shimazu). The level of SAH production were then normalized based on the values coming from the positive and negative controls to give percent enzyme activities. The data were then fit to a dose response equation using the program Helios (Novartis) to get the IC50 values of the test compounds.

[2] = target: wild type MLL1 five-member complex (MLL1-5C) (Homo sapiens, UniProt Q03164); assay: MLL1 Flashplate assay; type: biochemical; details: 2.5 nM MLL1-5C, 0.5 μM 3H-SAM, 1 μM H3K4me0; read-out: MLL1 flash plate
Method: MLL1 Flashplate Assay To assess the compound potency in MLL1 Flashplate assay, compounds were serially diluted 3-fold in DMSO to obtain a total of twelve concentrations. Then the test compounds at each concentration (250 nL of each) were transferred by Mosquito into Corning #3675 384-well plate. Solutions (15 μL) of 4.2 nM wild type MLL1 five-member complex (MLL1-5C) in the assay buffer (20 mM Tris-HCl, pH8.0, 0.01% Tween 20, 1 mM DTT, 0.01% BSA) were added to the wells. A 10 μL solution of 2.5 μM of the peptide substrate H3K4me0 (histone H3[1-21]-Biotin) and 1.25 μM ^3H-SAM in the reaction buffer was then added to initiate each reaction. The final components in the reaction solution include 2.5 nM MLL1-5C, 0.5 μM ^3H-SAM, and 1 μM H3K4me0 with varying concentration of the compounds. A positive control consisted of 2.5 nM MLL1-5C, 0.5 μM ^3H-SAM, and 1 μM substrate in the absence of the test compound, and a negative control consisted of 0.5 μM ^3H-SAM, and 1 μM substrate only. Each reaction was incubated at rt for 90 min, then stopped by addition of 5 μL per of quench solution (0.5 mM SAM in assay buffer). 25 μL of each reaction solution was transferred to FlashPlate streptavidin 384-well microplate (PerkinElmer). After at least 1 h incubation at rt, the wells were washed three times with 0.1% Tween-20 in dH2O using the BioTek plate washer. The plates were then read in MicroBeta (PerkinElmer). The radioactive readouts were then normalized based on the values coming from the positive and negative controls to give percent enzyme activities. The data were then fit to a dose response equation using the program Helios to get the IC50 values of the test compounds.

H3K4me3 in MV4-11 cells = assay: MV4-11 H3K4Me3 cellular ELISA assay; type: cell-based; details: Homo sapiens, 48 hours, H3K4me3 signal normalized to total H3
Method: MV4-11H3K4Me3 Cellular ELISA Assay
MV4-11 (ATCC® CRL-9591™) was cultured with RPMI1640 medium (Thermo Fisher Scientific, cat #11875) supplemented with 10% FBS (Thermo Fisher Scientific, cat #10099141) and 50 U/ml Penicillin-Streptomycin (Thermo Fisher Scientific, cat #10378016) in humidified incubator at 37° C., 5% CO2.
200 nL compounds dissolved in DMSO were serially diluted at 1:3 ratio for 12 points starting from 10 mM and dispensed into each wells of cell culture plates (PDL-coated ViewPlate-384 Black, FTC, PerkinElmer, #6007710). 3,750 MV4-11 cells in 40 μL culture medium were seeded into each well and treated with desired concentration for 48 hours. After treatment, wash cells with cold phosphate based buffer (PBS, pH 7.4) and aspirate the remaining PBS buffer. Crude histone lysate was extracted by 40 μL 0.5M HCl for 1 hour in 4° C. following neutralization by adding 32 μL neutralization buffer (0.5M Sodium phosphate dibasic, pH˜12.5, 1.25 mM Dithiothreitol, Promega #V3151, Protease Inhibitor Cocktail, Sigma #8340) for each well. 5 μL and 20 μL of histone lysate was loaded to ELISA plate (384 Well Plates, PE HB, White, 6005620) for detection of total H3 and H3K4me3, respectively. Shake the plates gently in 4° C. for overnight. After histone binding, plates were washed with 80 μL PBS/T (PBS with 0.05% Tween-20) and blocked with 50 μL 3% BSA diluted in PBS/T per well for 1 hour. Incubate wells with primary antibody for 1 hour at room temperature using anti-H3K4me3 (CST #9727) and anti-total H3 (CST #9715) diluted 1:2000 in 3% BSA. Plates were then washed with PBS/T for 3 times and incubated with horseradish peroxidase (HRP) conjugated secondary antibody (CST #7074, 1:5000) for 1 hour at room temperature. The abundance of H3K4me3 and total H3 were measured by ECL substrates chemiluminesce (Pierce, #34080) on a plate reader (PerkinElmer EnVison 2104 Mutilable Reader). Percentage inhibition was calculated against DMSO control after normalization of H3K4me3 signal to H3 signal for individual samples. The data were then fit to a dose response curve using GraphPad Prism for IC50 calculation.

IC50 [1] [nM]	Structure (SMILES)	IC50 [2] [nM]	IC50 (H3K4me3 in MV4-11 cells) [nM]
> 100	COC[C@H](N)CCCOc1cccc(Cl)c1Cc1cnc2c(N)ncnn12 [Example 6, (R)-7-(2-((4-amino-5-methoxypentyl)oxy)-6-chlorobenzyl)imidazo[2,1-f][1,2,4]triazin-4-amine]		
> 100	COC[C@H](N)CCCOc1ccccc1Cc1cnc2c(N)ncnn12 [Example 7, (R)-7-(2-((4-amino-5-methoxypentyl)oxy)benzyl)imidazo[2,1-f][1,2,4]triazin-4-amine]		
> 100	COC[C@H](N)CCCOc1cc(Cl)cc(Br)c1Cc1cnn2c(N)ncnc12 [Example 9, (R)-8-(2-((4-amino-5-methoxypentyl)oxy)-6-bromo-4-chlorobenzyl)pyrazolo[1,5-a][1,3,5] triazin-4-amine]		> 3000
> 100	COC[C@H](N)CCCOc1cccc(Br)c1Cc1cnn2c(N)ncnc12 [Example 10, (R)-8-(2-((4-amino-5-methoxypentyl)oxy)-6-bromobenzyl)pyrazolo[1,5-a][1,3,5]triazin-4-amine]		
> 100	COC[C@H](N)CCCOc1cccc(Cl)c1Cc1cnn2c(N)ncnc12 [Example 11, (R)-8-(2-((4-amino-5-methoxypentyl)oxy)-6-chlorobenzyl)pyrazolo[1,5-a][1,3,5]triazin-4-amine]		> 3000
> 100	COC[C@H](N)CCCOc1ccccc1Cc1cnn2c(N)ncnc12 [Example 12, (R)-8-(2-((4-amino-5-methoxypentyl)oxy)benzyl)pyrazolo[1,5-a][1,3,5]triazin-4-amine]		
> 100	COC[C@H](N)CCCOc1cc(Cl)ccc1Cc1cnn2c(N)ncnc12 [Example 13, (R)-8-(2-((4-amino-5-methoxypentyl)oxy)-4-chlorobenzyl)pyrazolo[1,5-a][1,3,5]triazin-4-amine]		
> 100	COC[C@H](N)CCCOc1c(Cl)cccc1Cc1cnn2c(N)ncnc12 [Example 14, (R)-8-(2-((4-amino-5-methoxypentyl)oxy)-3-chlorobenzyl)pyrazolo[1,5-a][1,3,5]triazin-4-amine]		
50 to 100	COC[C@H](N)CCCOc1ccc(Cl)c(Cl)c1Cn1cnc2c(N)ncc(Cl)c21 [Example 18, (R)-1-(6-((4-amino-5-methoxypentyl)oxy)-2,3-dichlorobenzyl)-7-chloro-1H-imidazo[4,5-c]pyridin-4-amine]		> 3000
50 to 100	Nc1ncnn2c(Cc3c(OCCC[C@@H](N)C(=O)O)ccc(Cl)c3Cl)cnc12 [Example 24, (R)-2-amino-5-(2-((4-aminoimidazo[2,1-f][1,2,4]triazin-7-yl)methyl)-3,4-dichlorophenoxy) pentanoic acid]		> 3000
> 100	Nc1ncnc2c1ncn2Cc1c(OCC[C@H](N)C(=O)O)ccc(F)c1F [Example 25, O-(2-((6-amino-9H-purin-9-yl)methyl)-3,4-difluorophenyl)-L-homoserine]		
> 100	CC(C)c1nc(N)c2ncn(Cc3c(Cl)cc(Cl)cc3OCCC[C@@H](N)C(=O)O)c2n1 [Example 26, (R)-2-amino-5-(2-((6-amino-2-isopropyl-9H-purin-9-yl)methyl)-3,5-dichlorophenoxy)pentanoic acid]		
> 100	Nc1ncc(Cl)c2c1ncn2Cc1c(Cl)cc(Cl)cc1OCCCC(N)C(=O)O (stereo not shown) [Example 28, 2-amino-5-(2-((4-amino-7-chloro-1H-imidazo[4,5-c]pyridin-1-yl)methyl)-3,5-dichlorophenoxy) pentanoic acid]		
< 50	COC(=O)[C@H](N)CCCOc1ccc(Cl)c(Cl)c1Cn1cnc2c(N)ncnc21 [Example 33, methyl (R)-2-amino-5-(2-((6-amino-9H-purin-9-yl)methyl)-3,4-dichlorophenoxy)pentanoate]		
> 100	NC(=O)[C@H](N)CCCOc1ccc(Cl)c(Cl)c1Cc1cnc2c(N)ncnn12 [Example 35, (R)-2-amino-5-(2-((4-aminoimidazo[2,1-f][1,2,4]triazin-7-yl)methyl)-3,4-dichlorophenoxy)pentanamide]		> 3000
> 100	NC(=O)[C@H](N)CCCOc1cc(Cl)cc(Cl)c1Cn1cnc2c(N)ncc(Cl)c21 [Example 38, (R)-2-amino-5-(2-((4-amino-7-chloro-1H-imidazo[4,5-c]pyridin-1-yl)methyl)-3,5-dichlorophenoxy)pentanamide]		
> 100	CNC(=O)[C@H](N)CCCOc1ccc(Cl)c(Cl)c1Cn1cnc2c(N)ncnc21 [Example 40, (R)-2-amino-5-(2-((6-amino-9H-purin-9-yl)methyl)-3,4-dichlorophenoxy)-N-methylpentanamide]		

Structure (SMILES)	IC50 [1] [nM]	IC50 [2] [nM]	IC50 (H3K4me3 in MV4-11 cells) [nM]
COC[C@H](N)CCOc1cc(Cl)cc(Br)c1Cn1cnc2c(N)ncnc21 [Example 2, (R)-9-(2-(3-amino-4-methoxybutoxy)-6-bromo-4-chlorobenzyl)-9H-purin-6-amine]	> 100	> 100	
COC[C@@H](N)CCOc1cc(Cl)cc(C)c1Cn1cnc2c(N)ncnc21 [Example 3, (S)-9-(2-(3-amino-4-methoxybutoxy)-4-chloro-6-methylbenzyl)-9H-purin-6-amine]	> 100		> 3000
CCc1cc(Cl)cc(OCC[C@H](N)COC)c1Cn1cnc2c(N)ncnc21 [Example 4, (S)-9-(2-(3-amino-4-methoxybutoxy)-4-chloro-6-ethylbenzyl)-9H-purin-6-amine]	> 100		> 3000
CC(C)COC[C@H](N)CCCOc1ccc(Cl)c(Cl)c1Cc1cnn2c(N)ncnc12 [Example 15, (R)-8-(6-((4-amino-5-isobutoxypentyl)oxy)-2,3-dichlorobenzyl)pyrazolo[1,5-a][1,3,5]triazin-4-amine]	> 100	> 100	
NCCCCOc1cc(Cl)cc(Cl)c1Cn1cnc2c(N)nccc21 [Example 46, 1-(2-(4-aminobutoxy)-4,6-dichlorobenzyl)-1H-imidazo[4,5-c]pyridin-4-amine]	> 100		
